Assay results taken from US11420961B2, “Heterocyclic compounds” (Hoffmann-La Roche Inc., priority 2017, dated 2022).

Target: T1, MAGL (recombinant wild-type) (Homo sapiens, UniProt Q99685)
T1 sequence (Q99685 1-303): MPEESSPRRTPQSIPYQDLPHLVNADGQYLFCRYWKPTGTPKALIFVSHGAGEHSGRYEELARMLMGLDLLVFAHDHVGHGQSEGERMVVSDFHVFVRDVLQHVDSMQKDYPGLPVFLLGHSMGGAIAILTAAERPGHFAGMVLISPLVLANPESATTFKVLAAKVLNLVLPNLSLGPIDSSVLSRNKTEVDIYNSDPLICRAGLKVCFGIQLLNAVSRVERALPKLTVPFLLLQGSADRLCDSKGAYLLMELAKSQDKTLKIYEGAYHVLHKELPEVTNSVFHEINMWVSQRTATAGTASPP
Assay: 4-NPA assay: MAGL inhibitory activity by hydrolysis of 4-nitrophenylacetate, absorbance at 405 nm
Assay type: biochemical
Settings: 4-NPA assay (values without footnote [a])
Procedure: Compounds were profiled for MAGL inhibitory activity by measuring the enzymatic activity of MAGL by following the hydrolysis of 4-nitorphenylacetate resulting in 4-nitrophenol, which absorbs at 405-412 nm (G. G. Muccioli, G. Labar, D M. Lambert, Chem. Bio. Chem. 2008, 9, 2704-2710). This assay is hereinafter abbreviated “4-NPA assay”.
The 4-NPA assay was carried out in 384 well assay plates (black with clear bottom, non-binding surface treated, Corning Ref. 3655) in a total volume of 40 μL. Compound dilutions were made in 100% DMSO (VWR Chemicals 23500.297) in a polypropylene plate in 3-fold dilution steps to give a final concentration range in the assay from 25 μM to 1.7 nM. 1 μL compound dilutions (100% DMSO) were added to 19 μL MAGL (recombinant wild-type) in assay buffer (50 mM TRIS (GIBCO, 15567-027), 1 mM EDTA (Fluka, 03690-100 ml)). The plate was shaked for 1 min at 2000 rpm (Variomag Teleshake) and then incubated for 15 min at RT. To start the reaction, 20 μL 4-Nitrophenlyacetate (Sigma N-8130) in assay buffer with 6% EtOH was added. The final concentrations in the assay were 1 nM MAGL and 300 μM 4-Nitrophenylacetate. After shaking (1 min, 2000 rpm) and 5 min incubation at RT, the absorbance at 405 nm was measured for a first time (Molecular Devices, SpectraMax Paradigm). A second measurement was then done after incubation for 80 min at RT. From the two measurements, the slope was calculated by substracting the first from the second measurement.

IC50 [nM]	Compound
7.3	COc1ccc(C(c2ccccn2)C2CCN(C(=O)c3ccc4c(c3)NC(=O)CO4)CC2)cc1OC (single isomer, unassigned) [Example 117, 6-[4-[(S or R)-(3,4-Dimethoxyphenyl)-(2-pyridyl)methyl]piperidine-1-carbonyl]-4H-1,4-benzoxazin-3-one]
1.4	O=C1COc2ccc(C(=O)N3CCC(C(c4ccc(F)cc4)c4ccc(F)nc4)CC3)cc2N1 (single isomer, unassigned) [Example 115, 6-[4-[(R or S)-(4-Fluorophenyl)-(6-fluoro-3-pyridyl)methyl]piperidine-1-carbonyl]-4H-1,4-benzoxazin-3-one]
0.69	O=C1COc2ccc(C(=O)N3CCC(C(c4ccccc4)c4ccc(Cl)c(Cl)c4)CC3)cc2N1 (stereo not shown) [Example 4, 6-[4-[(3,4-Dichlorophenyl)-phenylmethyl]piperidine-1-carbonyl]-4H-1,4-benzoxazin-3-one]
350	O=C1COc2ccc(C(=O)N3CCC(c4nn(CCO)c5cc(F)ccc45)CC3)cc2N1 [Example 37, 6-[4-[6-fluoro-1-(2-hydroxyethyl)indazol-3-yl]piperidine-1-carbonyl]-4H-1,4-benzoxazin-3-one]
802	COc1ccc(C(c2ccccc2)C2CN(C(=O)c3ccc4c(c3)NC(=O)CO4)C2)cc1OC (stereo not shown) [Example 127, 6-[3-[(3,4-Dimethoxyphenyl)-phenyl-methyl]azetidine-1-carbonyl]-4H-1,4-benzoxazin-3-one]
0.9	O=C1COc2ccc(C(=O)N3CCC([C@@H](c4ccccc4)c4ccc(F)cc4)CC3)cc2N1 (single isomer, unassigned) [Example 6]
0.5	Cc1cccc(C(c2ccccc2)C2CCN(C(=O)c3ccc4c(c3)NC(=O)CO4)CC2)c1 (stereo not shown) [Example 59, 6-[4-[m-tolyl(phenyl)methyl]piperidine-1-carbonyl]-4H-1,4-benzoxazin-3-one]
6.3	O=C1COc2ccc(C(=O)N3CCC(C4(c5ccc(Cl)cc5)CCCO4)CC3)cc2N1 (stereo not shown) [Example 53, 6-[4-[2-(4-chlorophenyl)oxolan-2-yl]piperidine-1-carbonyl]-4H-1,4-benzoxazin-3-one]
2220	O=C1COc2ccc(C(=O)N3CCN(c4ccc(C(F)(F)F)cn4)CC3)cc2N1 [Example 90, 6-[4-[5-(trifluoromethyl)-2-pyridyl]piperazine-1-carbonyl]-4H-1,4-benzoxazin-3-one]
0.55	O=C1COc2ccc(C(=O)N3CCC(C(c4ccccc4)c4cccc(OCCF)c4)CC3)cc2N1 (stereo not shown) [Example 72, 6-[4-[[3-(2-fluoroethoxy)phenyl]-phenyl-methyl]piperidine-1-carbonyl]-4H-1,4-benzoxazin-3-one]
0.8	COc1ccc(C(c2ccc(F)cc2)C2CCN(C(=O)c3ccc4c(c3)NC(=O)CO4)CC2)cc1OC (single isomer, unassigned) [Example 105, 6-[4-[(R or S)-(3,4-Dimethoxyphenyl)-(4-fluorophenyl)methyl]piperidine-1-carbonyl]-4H-1,4-benzoxazin-3-one]
0.6	COc1cccc(C(c2ccc(F)cc2)C2CCN(C(=O)c3ccc4c(c3)NC(=O)CO4)CC2)c1 (single isomer, unassigned) [Example 120, 6-[4-[(R or S)-(4-Fluorophenyl)-(3-methoxyphenyl)methyl]piperidine-1-carbonyl]-4H-1,4-benzoxazin-3-one]
0.3	O=C1COc2ccc(C(=O)N3CCC([C@@H](c4ccccc4)c4ccc(OCCF)cc4)CC3)cc2N1 [Example 80, 6-[4-[(S)-[4-(2-fluoroethoxy)phenyl]-phenyl-methyl]piperidine-1-carbonyl]-4H-1,4-benzoxazin-3-one]
0.2	O=C1COc2ccc(C(=O)N3CCC(C(c4ccc(F)cc4)c4ccc(OCCOCCF)cc4)CC3)cc2N1 (single isomer, unassigned) [Example 107, 6-[4-[(R or S)-[4-[2-(2-Fluoroethoxy)ethoxy]phenyl]-(4-fluorophenyl)methyl]piperidine-1-carbonyl]-4H-1,4-benzoxazin-3-one]
0.62	O=C1COc2ccc(C(=O)N3CCC(C(c4ccccc4)n4ccc5ccccc54)CC3)cc2N1 (stereo not shown) [Example 60, 6-[4-[indol-1-yl(phenyl)methyl]piperidine-1-carbonyl]-4H-1,4-benzoxazin-3-one]
55.4	COc1ccc(C(c2ccccn2)C2CCN(C(=O)c3ccc4c(c3)NC(=O)CO4)CC2)cc1OC (single isomer, unassigned) [Example 116, 6-[4-[(R or S)-(3,4-Dimethoxyphenyl)-(2-pyridyl)methyl]piperidine-1-carbonyl]-4H-1,4-benzoxazin-3-one]

IC50 [nM]	Compound
220	O=C1COc2ccc(C(=O)N3CCC(c4c[nH]c5ncccc45)CC3)cc2N1 [Example 45, 6-[4-(1H-pyrrolo[2,3-b]pyridin-3-yl)piperidine-1-carbonyl]-4H-1,4-benzoxazin-3-one]
3.6	COc1ccc(C(c2cccnc2)C2CCN(C(=O)c3ccc4c(c3)NC(=O)CO4)CC2)cc1OC (single isomer, unassigned) [Example 122, 6-[4-[(R or S)-(3,4-Dimethoxyphenyl)-(3-pyridyl)methyl]piperidine-1-carbonyl]-4H-1,4-benzoxazin-3-one]
84	Cn1nc(C2CCN(C(=O)c3ccc4c(c3)NC(=O)CO4)CC2)c2ccc(Cl)cc21 [Example 39, 6-[4-(6-chloro-1-methylindazol-3-yl)piperidine-1-carbonyl]-4H-1,4-benzoxazin-3-one]
6	O=C1COc2ccc(C(=O)N3CCC([C@H](c4ccccc4)c4ccc(OCCF)cc4)CC3)cc2N1 [Example 79, 6-[4-[(R)-[4-(2-fluoroethoxy)phenyl]-phenyl-methyl]piperidine-1-carbonyl]-4H-1,4-benzoxazin-3-one]
8.27	O=C1COc2ccc(C(=O)N3CCC(c4c[nH]c5ccc(F)cc45)CC3)cc2N1 [Example 22, 6-[4-(5-fluoro-1H-indol-3-yl)piperidine-1-carbonyl]-4H-1,4-benzoxazin-3-one]
1480	O=C1COc2ccc(C(=O)N3CCN(c4cc(C(F)(F)F)ccn4)CC3)cc2N1 [Example 88, 6-[4-[4-(trifluoromethyl)-2-pyridyl]piperazine-1-carbonyl]-4H-1,4-benzoxazin-3-one]
0.69	O=C1COc2ccc(C(=O)N3CCC(C(c4ccccc4)c4cccc(F)c4)CC3)cc2N1 (stereo not shown) [Example 82, 6-[4-[(3-fluorophenyl)-phenyl-methyl]piperidine-1-carbonyl]-4H-1,4-benzoxazin-3-one]
6.2	O=C1CCc2c(cc(C(=O)N3CCC(C(c4ccccc4)c4ccccc4)CC3)cc2OCCF)N1 [Example 109, 7-(4-Benzhydrylpiperidine-1-carbonyl)-5-(2-fluoroethoxy)-3,4-dihydro-1H-quinolin-2-one]
0.3	Cc1ccc(C(c2ccc(F)cc2)C2CCN(C(=O)c3ccc4c(c3)NC(=O)CO4)CC2)cc1 (single isomer, unassigned) [Example 112, 6-[4-[(S or R)-(4-Fluorophenyl)-(p-tolyl)methyl]piperidine-1-carbonyl]-4H-1,4-benzoxazin-3-one]
158	O=C1COc2ccc(C(=O)N3CCC(c4n[nH]c5ccccc45)CC3)cc2N1 [Example 36, 6-[4-(1H-indazol-3-yl)piperidine-1-carbonyl]-4H-1,4-benzoxazin-3-one]
59	Cc1[nH]c2ccc(Cl)cc2c1C1CCN(C(=O)c2ccc3c(c2)NC(=O)CO3)CC1 [Example 47, 6-[4-(5-chloro-2-methyl-1H-indol-3-yl)piperidine-1-carbonyl]-4H-1,4-benzoxazin-3-one]
5.83	O=C1COc2ccc(C(=O)N3CCN(C(c4ccc(F)cc4)c4ccc(F)cc4)CC3)cc2N1 [Example 84, 6-[4-[bis(4-fluorophenyl)methyl]piperazine-1-carbonyl]-4H-1,4-benzoxazin-3-one]
3020	O=C1COc2ccc(C(=O)N3CCC(c4nccc(C(F)(F)F)n4)C3)cc2N1 (stereo not shown) [Example 57, 6-[3-[4-(trifluoromethyl)pyrimidin-2-yl]pyrrolidine-1-carbonyl]-4H-1,4-benzoxazin-3-one]
1.84	O=C1COc2ccc(C(=O)N3CCC(C(c4ccccc4)c4cccnc4F)CC3)cc2N1 (stereo not shown) [Example 78, 6-[4-[(2-fluoro-3-pyridyl)-phenyl-methyl]piperidine-1-carbonyl]-4H-1,4-benzoxazin-3-one]
1.66	O=C1COc2ccc(C(=O)N3CCC([C@@H](c4ccc(F)cc4)c4cccc(OCCF)c4)CC3)cc2N1 [Example 77, 6-[4-[(S)-[3-(2-fluoroethoxy)phenyl]-(4-fluorophenyl)methyl]piperidine-1-carbonyl]-4H-1,4-benzoxazin-3-one]
